Results reported in ChEMBL document CHEMBL4152250, “Antibacterial and anti-TB tat-peptidomimetics with improved efficacy and half-life” (Eur J Med Chem, 2018).
In brackets after ≈: the same amount, converted by molar mass. Numbered stars: 1 amine (or outer) side, 2 acyl side, 3 side chain; on linkers, the order of the positions; unused ones are H or OH. Square brackets hold non-standard residues; d marks the D form. Peptide text beside a SMILES is read from it. Pro(N-(CH2)3Gua,cis-4-NH-) = N=C(N)NCCCN1C[C@@H](N[*:1])C[C@H]1C(=O)[*:2]; Pro(cis-4-guanidino) = NC(N)=N[C@@H]1CN[C@H](C(=O)O)C1; X1 = NCCCN1C[C@@H](N[*:1])C[C@H]1C(=O)[*:2]; Ethylenediamine = C(CN[*:2])N[*:1]; βAla = NCCC(=O)O

Assays:
[1] = system: Bacillus subtilis; test: Antibacterial activity against Bacillus subtilis NCIM 2079 after 12 hrs by serial dilution method; assay type: functional, organism-based; conditions: NCIM 2079, 12 h
[2] = system: Mycobacterium tuberculosis; test: Antitubercular activity against dormant stage of Mycobacterium tuberculosis H37Ra ATCC 25177 after 12 days by XRMA; assay type: functional, organism-based; conditions: H37Ra ATCC 25177, 288 h
[3] = system: Pseudomonas aeruginosa; test: Antibacterial activity against Pseudomonas aeruginosa NCIM 2036 after 8 hrs by serial dilution method; assay type: functional, organism-based; conditions: NCIM 2036, 8 h
[4] = system: Escherichia coli; test: Antibacterial activity against Escherichia coli NCIM 2688 after 8 hrs by serial dilution method; assay type: functional, organism-based; conditions: NCIM 2688, 8 h
[5] = Cytotoxicity against human HeLa cells assessed as cell viability at 1 to 10 uM after 24 hrs by MTT assay relative to control; assay type: cell-based; conditions: read-out: Activity
[6] = system: Staphylococcus aureus; test: Antibacterial activity against Staphylococcus aureus NCIM 2010 after 12 hrs by serial dilution method; assay type: functional, organism-based; conditions: NCIM 2010, 12 h
[7] = system: Mycobacterium tuberculosis; test: Antitubercular activity against active stage of Mycobacterium tuberculosis H37Ra ATCC 25177 after 8 days by XRMA; assay type: functional, organism-based; conditions: H37Ra ATCC 25177, 192 h
[8] = system: Enterobacter sp.; test: Antibacterial activity against Enterobacter sp. NCIM 5392 after 8 hrs by serial dilution method; assay type: functional, organism-based; conditions: NCIM 5392, 8 h
[9] = system: Staphylococcus epidermidis; test: Antibacterial activity against Staphylococcus epidermidis NCIM 5270 after 12 hrs by serial dilution method; assay type: functional, organism-based; conditions: NCIM 5270, 12 h

Row | SMILES | IC50 [1] | MIC [1] | IC50 [2] | MIC [2] | IC50 [3] | MIC [3] | IC50 [4] | MIC [4] | viability at 24 h, up to 10 µM [5] | IC50 [6] | MIC [6] | IC50 [7] | MIC [7] | IC50 [8] | MIC [8] | IC50 [9] | MIC [9]
1 | CC(=O)N[C@@H](Cc1ccccc1)C(=O)NCC(=O)N1C[C@@H](NC(=N)N)C[C@H]1C(=O)N[C@@H](CCCCN)C(=O)N[C@@H](CCCCN)C(=O)N[C@@H](CCCNC(=N)N)C(=O)N1C[C@@H](NC(=N)N)C[C@H]1C(=O)N[C@@H](CCC(N)=O)C(=O)N1C[C@@H](NC(=N)N)C[C@H]1C(=O)N[C@@H](CCCNC(=N)N)C(=O)N1C[C@@H](NC(=N)N)C[C@H]1C(=O)NCCC(N)=O (Ac-FG[Pro(cis-4-guanidino)]KKR[Pro(cis-4-guanidino)]Q[Pro(cis-4-guanidino)]R[Pro(cis-4-guanidino)][βAla]-NH2) | 143 nM | 15.1 µM (≈ 24.9 µg/mL) | 1910 nM | 29.4 µM (≈ 48.4 µg/mL) | 63 nM | 26 µM (≈ 42.8 µg/mL) | 223 nM | 27.7 µM (≈ 45.7 µg/mL) | ≥ 80% | 92 nM | 5.59 µM (≈ 9.21 µg/mL) | 7440 nM | 53.9 µM (≈ 88.8 µg/mL) | – | – | – | –
2 | CC(=O)N[C@@H](Cc1ccccc1)C(=O)NCC(=O)N[C@@H](CCCNC(=N)N)C(=O)N[C@@H](CCCCN)C(=O)N[C@@H](CCCCN)C(=O)N[C@H]1C[C@@H](C(=O)N[C@@H](CCCNC(=N)N)C(=O)N[C@@H](CCC(N)=O)C(=O)N[C@@H](CCCNC(=N)N)C(=O)N[C@@H](CCCNC(=N)N)C(=O)N[C@@H](CCCNC(=N)N)C(=O)NCCC(N)=O)N(CCCNC(=N)N)C1 (Ac-FGRKK[Pro(N-(CH2)3Gua,cis-4-NH-)]RQRRR[βAla]-NH2) | 45 nM | 14.1 µM (≈ 24.1 µg/mL) | 1280 nM | 13.8 µM (≈ 23.6 µg/mL) | 5 nM | 2.67 µM (≈ 4.57 µg/mL) | 18 nM | 7.25 µM (≈ 12.4 µg/mL) | ≥ 80% | 23 nM | 5.25 µM (≈ 8.98 µg/mL) | 3000 nM | 20.1 µM (≈ 34.4 µg/mL) | 14 nM | 4.7 µM (≈ 8.04 µg/mL) | 14 nM | 8.95 µM (≈ 15.3 µg/mL)
3 | CC(=O)N[C@@H](Cc1ccccc1)C(=O)NCC(=O)N[C@H]1C[C@@H](C(=O)N[C@@H](CCCCN)C(=O)N[C@@H](CCCCN)C(=O)N[C@@H](CCCNC(=N)N)C(=O)N[C@H]2C[C@@H](C(=O)N[C@@H](CCC(N)=O)C(=O)N[C@@H](CCCNC(=N)N)C(=O)N[C@@H](CCCNC(=N)N)C(=O)N[C@H]3C[C@@H](C(=O)NCCC(N)=O)N(CCCNC(=N)N)C3)N(CCCNC(=N)N)C2)N(CCCNC(=N)N)C1 (Ac-FG[Pro(N-(CH2)3Gua,cis-4-NH-)]KKR[Pro(N-(CH2)3Gua,cis-4-NH-)]QRR[Pro(N-(CH2)3Gua,cis-4-NH-)][βAla]-NH2) | 10.4 nM | 2.81 µM (≈ 5.12 µg/mL) | 2200 nM | 22.8 µM (≈ 41.5 µg/mL) | 9.8 nM | 1.82 µM (≈ 3.31 µg/mL) | 18 nM | 7.58 µM (≈ 13.8 µg/mL) | ≥ 80% | 10.4 nM | 9.05 µM (≈ 16.5 µg/mL) | 8400 nM | 26.1 µM (≈ 47.5 µg/mL) | 24 nM | 8.01 µM (≈ 14.6 µg/mL) | 6.5 nM | 9.44 µM (≈ 17.2 µg/mL)
4 | NC[C@H]1O[C@H](O[C@H]2[C@H](O)[C@@H](O[C@H]3O[C@H](CO)[C@@H](O)[C@H](N)[C@H]3O)[C@H](N)C[C@@H]2N)[C@H](O)[C@@H](O)[C@@H]1O [KANAMYCIN] | 135 nM | 2.8 µM (≈ 1.36 µg/mL) | – | – | 49 nM | 1.01 µM (≈ 0.489 µg/mL) | 162 nM | 3.3 µM (≈ 1.6 µg/mL) | – | 300 nM | > 61.9 µM | – | – | – | – | – | –
5 | CC(=O)N[C@@H](Cc1ccccc1)C(=O)NCC(=O)N[C@@H](CCCNC(=N)N)C(=O)N[C@@H](CCCCN)C(=O)N[C@@H](CCCCN)C(=O)N[C@@H](CCCNC(=N)N)C(=O)N[C@@H](CCCNC(=N)N)C(=O)N[C@@H](CCC(N)=O)C(=O)N[C@@H](CCCNC(=N)N)C(=O)N[C@@H](CCCNC(=N)N)C(=O)N1C[C@@H](NC(=N)N)C[C@H]1C(=O)NCCC(N)=O (Ac-FGRKKRRQRR[Pro(cis-4-guanidino)][βAla]-NH2) | 149 nM | 7.96 µM (≈ 13.2 µg/mL) | 910 nM | 23.9 µM (≈ 39.5 µg/mL) | 70 nM | 10.3 µM (≈ 17 µg/mL) | 92 nM | 6.73 µM (≈ 11.1 µg/mL) | ≥ 80% | 86 nM | 10.9 µM (≈ 18.1 µg/mL) | 9700 nM | 32.1 µM (≈ 53.1 µg/mL) | – | – | – | –
6 | CO[C@H]1/C=C/O[C@@]2(C)Oc3c(C)c(O)c4c(O)c(c(/C=N/N5CCN(C)CC5)c(O)c4c3C2=O)NC(=O)/C(C)=C\C=C\[C@H](C)[C@H](O)[C@@H](C)[C@@H](O)[C@@H](C)[C@H](OC(C)=O)[C@@H]1C [RIFAMPIN] | – | – | – | 0.91 µM (≈ 0.749 µg/mL) | – | – | – | – | – | – | – | – | 0.97 µM (≈ 0.798 µg/mL) | – | – | – | –
7 | CC(=O)N[C@@H](Cc1ccccc1)C(=O)NCC(=O)N[C@H]1C[C@@H](C(=O)N[C@@H](CCCCN)C(=O)N[C@@H](CCCCN)C(=O)N[C@@H](CCCNC(=N)N)C(=O)N[C@H]2C[C@@H](C(=O)N[C@@H](CCC(N)=O)C(=O)N[C@H]3C[C@@H](C(=O)N[C@@H](CCCNC(=N)N)C(=O)N[C@H]4C[C@@H](C(=O)NCCN)N(CCCN)C4)N(CCCN)C3)N(CCCN)C2)N(CCCN)C1 (Ac-FG[X1]KKR[X1]Q[X1]R[X1]-Ethylenediamine) | 5.8 nM | 3.79 µM (≈ 6.37 µg/mL) | 1420 nM | 18.3 µM (≈ 30.7 µg/mL) | 7 nM | 2.2 µM (≈ 3.7 µg/mL) | 7 nM | 2.34 µM (≈ 3.93 µg/mL) | ≥ 80% | 13.4 nM | 3.02 µM (≈ 5.07 µg/mL) | 4920 nM | 34.4 µM (≈ 57.8 µg/mL) | 11 nM | 4.51 µM (≈ 7.58 µg/mL) | 7 nM | 3.94 µM (≈ 6.62 µg/mL)
8 | NC(=O)c1cnccn1 [PYRAZINAMIDE] | – | – | – | > 100 µM | – | – | – | – | – | – | – | – | > 100 µM | – | – | – | –
9 | CC(=O)N[C@@H](Cc1ccccc1)C(=O)NCC(=O)N1C[C@@H](NC(=N)N)C[C@H]1C(=O)N[C@@H](CCCCN)C(=O)N[C@@H](CCCCN)C(=O)N[C@@H](CCCNC(=N)N)C(=O)N1C[C@@H](NC(=N)N)C[C@H]1C(=O)N[C@@H](CCC(N)=O)C(=O)N[C@@H](CCCNC(=N)N)C(=O)N[C@@H](CCCNC(=N)N)C(=O)N1C[C@@H](NC(=N)N)C[C@H]1C(=O)NCCC(N)=O (Ac-FG[Pro(cis-4-guanidino)]KKR[Pro(cis-4-guanidino)]QRR[Pro(cis-4-guanidino)][βAla]-NH2) | 135 nM | 13.2 µM (≈ 21.8 µg/mL) | 500 nM | 21.1 µM (≈ 34.8 µg/mL) | 92 nM | 12.6 µM (≈ 20.8 µg/mL) | 105 nM | 11.8 µM (≈ 19.5 µg/mL) | ≥ 80% | 227 nM | 20.5 µM (≈ 33.9 µg/mL) | 10600 nM | 36.3 µM (≈ 59.9 µg/mL) | – | – | – | –
10 | CC(=O)N[C@@H](Cc1ccccc1)C(=O)NCC(=O)N[C@@H](CCCNC(=N)N)C(=O)N[C@@H](CCCCN)C(=O)N[C@@H](CCCCN)C(=O)N1C[C@@H](NC(=N)N)C[C@H]1C(=O)N[C@@H](CCCNC(=N)N)C(=O)N[C@@H](CCC(N)=O)C(=O)N[C@@H](CCCNC(=N)N)C(=O)N[C@@H](CCCNC(=N)N)C(=O)N[C@@H](CCCNC(=N)N)C(=O)NCCC(N)=O (Ac-FGRKK[Pro(cis-4-guanidino)]RQRRR[βAla]-NH2) | 344 nM | 29.9 µM (≈ 49.4 µg/mL) | 2510 nM | 33.9 µM (≈ 56.1 µg/mL) | 47 nM | 6.53 µM (≈ 10.8 µg/mL) | 92 nM | 13.5 µM (≈ 22.3 µg/mL) | ≥ 80% | 104 nM | 8.65 µM (≈ 14.3 µg/mL) | 4450 nM | 28.6 µM (≈ 47.3 µg/mL) | – | – | – | –
11 | CC1(C)S[C@@H]2[C@H](NC(=O)[C@H](N)c3ccccc3)C(=O)N2[C@H]1C(=O)O [AMPICILLIN] | 1000 nM | 29.5 µM (≈ 10.3 µg/mL) | – | – | 436 nM | 12.5 µM (≈ 4.37 µg/mL) | 146 nM | 4.17 µM (≈ 1.46 µg/mL) | – | 100 nM | 2.8 µM (≈ 0.978 µg/mL) | – | – | – | – | – | –
